Measurements published in PubChem BioAssay (NCI).
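Test compounds were applied to cells in 96-well plates for 48 hours at 5 doses. TGI marks complete inhibition of growth.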

Assays:
Test in all cases: NCI anticancer screen, dose series, 48 h
786-0 renal = test system: 786-0 renal
A498 renal = test system: A498 renal
A549 NSCLC = test system: A549 NSCLC
ACHN renal = test system: ACHN renal
CAKI-1 renal = test system: CAKI-1 renal
CCRF-CEM leukemia = test system: CCRF-CEM leukemia
COLO 205 colon = test system: COLO 205 colon
DLD-1 colon = test system: DLD-1 colon
DMS 114 small cell lung = test system: DMS 114 small cell lung
DMS 273 small cell lung = test system: DMS 273 small cell lung
EKVX NSCLC = test system: EKVX NSCLC
HCC-2998 colon = test system: HCC-2998 colon
HCT-116 colon = test system: HCT-116 colon
HCT-15 colon = test system: HCT-15 colon
HL-60(TB) leukemia = test system: HL-60(TB) leukemia
HOP-18 NSCLC = test system: HOP-18 NSCLC
HOP-62 NSCLC = test system: HOP-62 NSCLC
HOP-92 NSCLC = test system: HOP-92 NSCLC
HT29 colon = test system: HT29 colon
IGROV1 ovarian = test system: IGROV1 ovarian
KM12 colon = test system: KM12 colon
KM20L2 colon = test system: KM20L2 colon
LOX IMVI melanoma = test system: LOX IMVI melanoma
LXFL 529 NSCLC = test system: LXFL 529 NSCLC
M14 melanoma = test system: M14 melanoma
M19-MEL melanoma = test system: M19-MEL melanoma
MALME-3M melanoma = test system: MALME-3M melanoma
MOLT-4 leukemia = test system: MOLT-4 leukemia
NCI-H226 lung = test system: NCI-H226 lung
NCI-H23 lung = test system: NCI-H23 lung
NCI-H460 lung = test system: NCI-H460 lung
NCI-H522 lung = test system: NCI-H522 lung
OVCAR-3 ovarian = test system: OVCAR-3 ovarian
OVCAR-4 ovarian = test system: OVCAR-4 ovarian
OVCAR-5 ovarian = test system: OVCAR-5 ovarian
OVCAR-8 ovarian = test system: OVCAR-8 ovarian
RPMI-8226 leukemia = test system: RPMI-8226 leukemia
RXF 393 renal = test system: RXF 393 renal
SF-268 CNS = test system: SF-268 CNS
SF-295 CNS = test system: SF-295 CNS
SF-539 CNS = test system: SF-539 CNS
SK-MEL-2 melanoma = test system: SK-MEL-2 melanoma
SK-MEL-28 melanoma = test system: SK-MEL-28 melanoma
SK-MEL-5 melanoma = test system: SK-MEL-5 melanoma
SK-OV-3 ovarian = test system: SK-OV-3 ovarian
SN12C renal = test system: SN12C renal
SNB-19 CNS = test system: SNB-19 CNS
SNB-75 CNS = test system: SNB-75 CNS
SNB-78 CNS = test system: SNB-78 CNS
SW-620 colon = test system: SW-620 colon
TK-10 renal = test system: TK-10 renal
U251 CNS = test system: U251 CNS
UACC-257 melanoma = test system: UACC-257 melanoma
UACC-62 melanoma = test system: UACC-62 melanoma
UO-31 renal = test system: UO-31 renal
K-562 leukemia = test system: K-562 leukemia
SR leukemia = test system: SR leukemia
XF 498 CNS = test system: XF 498 CNS

Structure (SMILES): CCc1nc2ccccc2c(=O)n1/N=C(\N=Nc1ccc(Cl)cc1)c1ccccc1
- TGI (786-0 renal): 59.2 µM
- TGI (A498 renal): > 100 µM
- TGI (A549 NSCLC): 98.7 µM
- TGI (ACHN renal): > 92.4 µM
- TGI (CAKI-1 renal): 46.4 µM
- TGI (CCRF-CEM leukemia): > 100 µM
- TGI (COLO 205 colon): > 100 µM
- TGI (DLD-1 colon): > 100 µM
- TGI (DMS 114 small cell lung): 59.3 µM
- TGI (DMS 273 small cell lung): 50 µM
- TGI (EKVX NSCLC): 75.2 µM
- TGI (HCC-2998 colon): 95.6 µM
- TGI (HCT-116 colon): 64.5 µM
- TGI (HCT-15 colon): > 100 µM
- TGI (HL-60(TB) leukemia): > 100 µM
- TGI (HOP-18 NSCLC): 71 µM
- TGI (HOP-62 NSCLC): 69.4 µM
- TGI (HOP-92 NSCLC): 46.2 µM
- TGI (HT29 colon): 36.9 µM
- TGI (IGROV1 ovarian): > 100 µM
- TGI (KM12 colon): 34.7 µM
- TGI (KM20L2 colon): 27.7 µM
- TGI (LOX IMVI melanoma): 40.5 µM
- TGI (LXFL 529 NSCLC): 50.8 µM
- TGI (M14 melanoma): > 100 µM
- TGI (M19-MEL melanoma): > 100 µM
- TGI (MALME-3M melanoma): 90 µM
- TGI (MOLT-4 leukemia): > 100 µM
- TGI (NCI-H226 lung): 63.4 µM
- TGI (NCI-H23 lung): > 100 µM
- TGI (NCI-H460 lung): > 100 µM
- TGI (NCI-H522 lung): > 69.3 µM
- TGI (OVCAR-3 ovarian): 57.1 µM
- TGI (OVCAR-4 ovarian): 75.6 µM
- TGI (OVCAR-5 ovarian): > 100 µM
- TGI (OVCAR-8 ovarian): > 100 µM
- TGI (RPMI-8226 leukemia): > 100 µM
- TGI (RXF 393 renal): > 75.8 µM
- TGI (SF-268 CNS): 95.3 µM
- TGI (SF-295 CNS): 53.6 µM
- TGI (SF-539 CNS): 51.8 µM
- TGI (SK-MEL-2 melanoma): 82.5 µM
- TGI (SK-MEL-28 melanoma): > 100 µM
- TGI (SK-MEL-5 melanoma): 44.6 µM
- TGI (SK-OV-3 ovarian): 62 µM
- TGI (SN12C renal): > 100 µM
- TGI (SNB-19 CNS): 82.6 µM
- TGI (SNB-75 CNS): 40.1 µM
- TGI (SNB-78 CNS): 71.1 µM
- TGI (SW-620 colon): > 100 µM
- TGI (TK-10 renal): 78.3 µM
- TGI (U251 CNS): > 87.8 µM
- TGI (UACC-257 melanoma): 59.6 µM
- TGI (UACC-62 melanoma): > 100 µM
- TGI (UO-31 renal): 76.8 µM

Structure (SMILES): C=CC(=O)NCNC(=O)C=C
- TGI (786-0 renal): > 100 µM
- TGI (A498 renal): > 100 µM
- TGI (A549 NSCLC): > 100 µM
- TGI (ACHN renal): > 100 µM
- TGI (CAKI-1 renal): > 100 µM
- TGI (CCRF-CEM leukemia): > 100 µM
- TGI (COLO 205 colon): > 100 µM
- TGI (DLD-1 colon): > 100 µM
- TGI (DMS 114 small cell lung): > 100 µM
- TGI (DMS 273 small cell lung): > 100 µM
- TGI (EKVX NSCLC): > 100 µM
- TGI (HCC-2998 colon): > 100 µM
- TGI (HCT-116 colon): > 100 µM
- TGI (HCT-15 colon): > 100 µM
- TGI (HL-60(TB) leukemia): > 100 µM
- TGI (HOP-18 NSCLC): > 100 µM
- TGI (HOP-62 NSCLC): > 100 µM
- TGI (HOP-92 NSCLC): > 100 µM
- TGI (HT29 colon): > 100 µM
- TGI (IGROV1 ovarian): > 100 µM
- TGI (K-562 leukemia): > 100 µM
- TGI (KM12 colon): > 100 µM
- TGI (KM20L2 colon): > 100 µM
- TGI (LOX IMVI melanoma): > 100 µM
- TGI (LXFL 529 NSCLC): > 100 µM
- TGI (M14 melanoma): > 100 µM
- TGI (M19-MEL melanoma): > 100 µM
- TGI (MALME-3M melanoma): > 100 µM
- TGI (MOLT-4 leukemia): > 100 µM
- TGI (NCI-H226 lung): > 100 µM
- TGI (NCI-H23 lung): > 100 µM
- TGI (NCI-H460 lung): > 100 µM
- TGI (NCI-H522 lung): > 100 µM
- TGI (OVCAR-3 ovarian): > 100 µM
- TGI (OVCAR-4 ovarian): > 100 µM
- TGI (OVCAR-5 ovarian): > 100 µM
- TGI (OVCAR-8 ovarian): > 100 µM
- TGI (RPMI-8226 leukemia): > 100 µM
- TGI (SF-268 CNS): > 100 µM
- TGI (SF-295 CNS): > 100 µM
- TGI (SF-539 CNS): > 100 µM
- TGI (SK-MEL-2 melanoma): > 100 µM
- TGI (SK-MEL-28 melanoma): > 100 µM
- TGI (SK-MEL-5 melanoma): > 100 µM
- TGI (SK-OV-3 ovarian): > 100 µM
- TGI (SN12C renal): > 100 µM
- TGI (SNB-19 CNS): > 100 µM
- TGI (SNB-75 CNS): > 100 µM
- TGI (SR leukemia): > 100 µM
- TGI (SW-620 colon): > 100 µM
- TGI (TK-10 renal): > 100 µM
- TGI (U251 CNS): > 100 µM
- TGI (UACC-257 melanoma): > 100 µM
- TGI (UACC-62 melanoma): > 100 µM
- TGI (UO-31 renal): > 100 µM
- TGI (XF 498 CNS): > 100 µM
